From BindingDB's records for doi:10.7270/Q2TX3CTT (Broad Institute, 2010)
pEC50: −log10 of the molar value. Where a name gives a salt, the structure may show the parent alone.

Target: Glycogen synthase kinase-3 beta (Homo sapiens, UniProt P49841)
Assay: concentration-response blocking of human GSK3B – biochemical, luminescence, cell-free homogeneous, retest, dose response (AID 434954)

Sequence of Glycogen synthase kinase-3 beta (P49841 whole entry): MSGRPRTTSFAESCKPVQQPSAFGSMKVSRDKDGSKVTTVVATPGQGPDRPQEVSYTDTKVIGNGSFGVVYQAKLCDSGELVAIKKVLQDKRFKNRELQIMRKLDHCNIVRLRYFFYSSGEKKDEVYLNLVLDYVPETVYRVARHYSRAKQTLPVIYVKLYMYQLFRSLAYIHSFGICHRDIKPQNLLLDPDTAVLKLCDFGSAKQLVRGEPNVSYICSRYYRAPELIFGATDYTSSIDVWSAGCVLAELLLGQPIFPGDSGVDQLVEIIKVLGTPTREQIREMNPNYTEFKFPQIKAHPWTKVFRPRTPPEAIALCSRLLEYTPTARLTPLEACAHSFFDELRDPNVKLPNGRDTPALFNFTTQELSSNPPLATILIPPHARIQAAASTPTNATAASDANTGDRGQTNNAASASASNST

| pEC50 | SMILES |
| --- | --- |
| 4.28 | COc1ccc(CNC(=O)CN(Cc2ccc(OC)cc2)C(=O)CCC(=O)Nc2ccccn2)cc1 [SMR000600506] |
| < 3.52 | CN(C)c1nc(-c2ccccc2)nc(-c2ccc(Cl)cc2)c1C#N [4-(4-chlorophenyl)-6-(dimethylamino)-2-phenylpyrimidine-5-carbonitrile] |
| < 3.52 | N=C(NO)c1ccc(Oc2ccccc2Cl)c([N+](=O)[O-])c1 [4-(2-chlorophenoxy)-N'-hydroxy-3-nitrobenzenecarboximidamide] |
| < 3.52 | Cc1[nH]n(-c2ccccc2)c(=O)c1/C=N/NC(=O)COc1ccccc1[N+](=O)[O-] [MLS000592191] |
| < 3.52 | Clc1ccc2c(c1)Nc1ccccc1CC2 [3-chloro-10,11-dihydro-5H-dibenzo[b,f]azepine] |
| < 3.52 | COc1ccc(C2=NOC(C(=O)Nc3cccnc3)C2)cc1 (stereo not drawn) [SMR000130842] |
| < 3.52 | Cc1ccc(C=NNC(=O)c2cncc(Br)c2)o1 [SMR000226283] |
| 4.88 | COc1ccc(C(=O)ON=C(N)c2ccccn2)cc1 [SMR000608101] |
| < 3.52 | COc1cccc(C(CC(=O)NCc2ccco2)NS(=O)(=O)c2ccc(C)cc2)c1OC (stereo not drawn) [3-(2,3-dimethoxyphenyl)-N-(2-furylmethyl)-3-{[(4-methylphenyl)sulfonyl]amino}propanamide] |
| < 3.52 | N#Cc1c(O)nc(SCC(=O)Nc2nnc(C(F)(F)F)s2)nc1-c1ccccc1 [2-[(5-cyano-4-oxo-6-phenyl-1H-pyrimidin-2-yl)sulfanyl]-N-[5-(trifluoromethyl)-1,3,4-thiadiazol-2-yl]acetamide] |
| 6.15 | CN(Cc1c(C(=O)NN=Cc2cccc(O)c2)nnn1-c1nonc1N)C1CCCCC1 [MLS001142859] |
| < 3.52 | Nc1nc(NCC(=O)O)nc(NC2CCCCC2)c1[N+](=O)[O-] [2-[[4-azanyl-6-(cyclohexylamino)-5-nitro-pyrimidin-2-yl]amino]ethanoic acid] |
| 4.80 | Cc1c(Cc2ccccc2)c(=O)oc2cc(O)cc(O)c12 [SMR000300454] |
| < 3.52 | COC(=O)c1sccc1NC(=O)c1cccc(OC)c1 [methyl 3-[(3-methoxyphenyl)carbonylamino]thiophene-2-carboxylate] |
| 5.70 | COc1ccc2occ(C(=O)c3coc4ccc(O)c(CN(C)C)c34)c2c1 [[4-[(dimethylamino)methyl]-5-oxidanyl-1-benzofuran-3-yl]-(5-methoxy-1-benzofuran-3-yl)methanone;hydrochloride] |
| < 3.52 | NC(=O)C1CCN(C(=O)c2ccc(Oc3cc(Cl)cc(Cl)c3)o2)CC1 [1-[5-[3,5-bis(chloranyl)phenoxy]furan-2-yl]carbonylpiperidine-4-carboxamide] |
| < 3.52 | CCNc1nc(N)c(C(=C(C#N)C#N)c2ccccc2)s1 |
| < 3.52 | Cc1coc2cc3oc(=O)c(CCC(=O)NCCCN4CCCC4=O)c(C)c3cc12 [3-(3,5-dimethyl-7-oxo-6-furo[3,2-g][1]benzopyranyl)-N-[3-(2-oxo-1-pyrrolidinyl)propyl]propanamide] |
| < 3.52 | Cc1nn(-c2ccccn2)c2c1C(c1ccncc1)C1C(=O)CC(C)(C)CC1=N2 (stereo not drawn) [SMR000152057] |
| 6.48 | COc1cccc(C(=O)c2sc(NC(C)C)nc2N)c1 [MLS000036929] |
| < 3.52 | Cc1cc2cc(CN(CCCN3CCOCC3)C(=O)NC3CCCCC3)c(=O)[nH]c2cc1C [3-cyclohexyl-1-[(6,7-dimethyl-2-oxo-1H-quinolin-3-yl)methyl]-1-(3-morpholin-4-ylpropyl)urea] |
| < 3.52 | C[N+](C)=c1ccn(CC(=O)N2c3ccccc3Sc3ccccc32)cc1 |
| < 3.52 | O=C(Nc1cccc(NC(=O)c2ccc3c(c2)OCO3)c1)c1ccccc1 [MLS000706176] |
| < 3.52 | c1c2c(cc3sc(N4CCOCC4)nc13)OCCO2 [2-(4-morpholinyl)-6,7-dihydro-[1,4]dioxino[2,3-f][1,3]benzothiazole] |

| pEC50 | SMILES |
| --- | --- |
| < 3.52 | COc1cccc(C(=O)Nc2nc(-c3ccncc3)cs2)c1 [3-methoxy-N-(4-pyridin-4-yl-1,3-thiazol-2-yl)benzamide] |
| < 3.52 | O=C(CSc1ncnc2c1cnn2-c1ccc(F)cc1)NCC1CCCO1 (stereo not drawn) [SMR000806858] |
| < 3.52 | O=[N+]([O-])c1cc(Cl)ccc1N1CCCCC1 [MLS000856435] |
| < 3.52 | O=C(O)COCC(=O)N1CCN(C(c2ccccc2)c2ccccc2)CC1 [2-[2-(4-benzhydrylpiperazino)-2-oxoethoxy]acetic acid] |
| 5.30 | O=C(Nc1ccncc1)Nc1ccccn1 [1-pyridin-2-yl-3-pyridin-4-yl-urea] |
| < 3.52 | CCN(CC)CCCNc1nc(N)c([N+](=O)[O-])c(NCCO)n1 [SMR000436737] |
| < 3.52 | COc1cccc2cc(CC(=O)c3ccc(C)cc3C)c(=O)oc12 [3-[2-(2,4-dimethylphenyl)-2-oxoethyl]-8-methoxychromen-2-one] |
| 5.01 | Nc1nc(NCCO)nc(NCC2CCCO2)c1[N+](=O)[O-] (stereo not drawn) |
| < 3.52 | CC(=O)Nc1ccc(S(=O)(=O)c2cc(O)ccc2O)cc1 |
| < 3.52 | COC1=CC(=O)CC(C)C12Oc1cc(OC)cc(OC)c1C2=O (stereo not drawn) [3',4,6-trimethoxy-5'-methyl-spiro[1-benzofuran-2,4'-cyclohex-2-ene]-1',3-dione] |
| 5.08 | CC(=O)N1CCc2c(sc(NC(=O)C3COc4ccccc4O3)c2C(N)=O)C1 (stereo not drawn) [2-(2,3-dihydro-1,4-benzodioxin-3-ylcarbonylamino)-6-ethanoyl-5,7-dihydro-4H-thieno[2,3-c]pyridine-3-carboxamide] |
| < 3.52 | Cc1ccc(-n2c(C)nc3c(cnn3-c3ccc(F)cc3)c2=O)cc1C [SMR000026457] |
| 5.84 | CC(C)CCNc1nc(N)c([N+](=O)[O-])c(NCC2CCCO2)n1 (stereo not drawn) [SMR000220274] |
| < 3.52 | N#Cc1ccccc1CSc1nnc(Cc2ccccc2)o1 [SMR000297282] |
| < 3.52 | COc1ccc(/C=C2/Sc3ccc(C(=O)NCCN4CCCCCC4)cc3NC2=O)cc1 [(2E)-N-[2-(azepan-1-yl)ethyl]-2-[(4-methoxyphenyl)methylidene]-3-oxo-4H-1,4-benzothiazine-6-carboxamide] |
| 5.08 | Nc1nc(NCCCN2CCOCC2)nc(NCc2ccccc2)c1[N+](=O)[O-] [N'-Benzyl-N-(3-morpholin-4-yl-propyl)-5-nitro-pyrimidine-2,4,6-triamine] |
| < 3.52 | Cc1ccc(NC(=O)NCCCN2CCCC2=O)cc1C [SMR000677961] |
| 4.15 | CCOC(=O)c1nnn(-c2nonc2N)c1CN1CCc2ccccc2C1 [ethyl 1-(4-amino-1,2,5-oxadiazol-3-yl)-5-(3,4-dihydro-1H-isoquinolin-2-ylmethyl)triazole-4-carboxylate] |
| < 3.52 | Cn1nnnc1Sc1c(Cl)cccc1[N+](=O)[O-] [5-({2-chloro-6-nitrophenyl}sulfanyl)-1-methyl-1H-tetraazole] |
| < 3.52 | O=C(c1noc2c1CCc1ccccc1-2)N1CCOCC1 [3-(morpholin-4-ylcarbonyl)-4,5-dihydronaphtho[2,1-d]isoxazole] |
| 5.69 | CNC(=O)NC(=O)CSc1nc(-c2cccs2)c(C#N)c(=O)[nH]1 [2-[(5-cyano-4-oxo-6-thiophen-2-yl-1H-pyrimidin-2-yl)thio]-N-(methylcarbamoyl)acetamide] |
| < 3.52 | CCCCc1cc(=O)oc2cc(C)cc(OCc3nn[nH]n3)c12 [MLS000041678] |
| < 3.52 | O=NCc1ccc(SCc2ccccc2Cl)c([N+](=O)[O-])c1 |

| SMILES | pEC50 |
| --- | --- |
| CC[n+]1c(/C=C/C=C/c2ccc(N(C)C)cc2)sc2ccccc21 [SMR000420206] | 4.45 |
